One data set concerns the target T1, 20S human proteasome (Homo sapiens, UniProt P28074).
T1 construct: purchased Boston Biochem
Nature of the data set: Cell-free inhibition of chymotrypsin-like (CT-like) activity of 20S proteasome. Conditions: for IC50: 30 min pre-incubation, 37 °C, pH 7.5, N-Suc-LLVT-AMC 0.080 mM, read-out: IC50 on 20S isoform (CT-like activity). Format: biochemical. On the procedure: (§1) The fluorescent substrate N-succinyl-Leu-Leu-Val-Tyr-7-amido-4-methylcoumarin (N-Suc-LLVT-AMC) was used for measurement of the CT-like activity of the proteasome, both in cell free assays and in cancer cell extracts, at a final concentration of 0.080 mM at 37 °C in Tris buffer pH 7.5, following the procedure described in Palmieri et al..
(§2) Protease inhibition activities of CLA isomers and fatty acids were carried out using a fixed amount of commercially available APEH or 20S, 20Si, 26S proteasomes (3-5 nM or 0.12 mg/mL, respectively), and increasing concentrations of fatty acid. Mixtures were pre-incubated for 30min at 37 °C in 50 mM Tris-HCl buffer pH 7.5, before addition of the specific substrate, and the enzymatic activities were followed as described above.

A further data set has as its system A375 melanoma cells. Nature of the data set: MTT cell viability, A375. Type of data set: cell-based, human. Conditions: for reduction of cell viability: A375, 24h exposure, 50 to 200 μM. As for the experimental part: (§3) The colorimetric 3-(4,5-dimethylthiazol-2)-2,5-diphenyltetrazolium bromide (MTT) (Sigma Aldrich, Milan) assay was used to quantify cell viability. Briefly, cells were incubated in 96 well microplates in the appropriate complete medium with standardized densities for 24h as pre-incubation process. The medium was removed and replaced by medium containing different doses of the different CLA-isomers for 24h. Following treatment, the medium was removed and the cells were incubated with DMEM w/o red phenol with 0.5 mg/ml MTT for additional 2 to 4h at 37 °C. After removal of the medium and MTT, cells in each plate were incubated with 0.1 M HCl/isopropanol to dissolve the MTT-formazan crystals. Absorbance at 590 nm was recorded with a plate reader (Bio Rad mod 680). The relative number of viable cells was expressed as a percentage of the control.

A further data set deals with T2, 20Si human proteasome (Homo sapiens, UniProt P28062).
T2 construct: purchased Boston Biochem
Nature of the data set: Cell-free inhibition of CT-like activity of 20Si proteasome. Type of data set: biochemical. The conditions noted are these: for IC50: 30 min pre-incubation, 37 °C, pH 7.5, N-Suc-LLVT-AMC 0.080 mM, read-out: IC50 on 20Si isoform (CT-like activity).

For data set [1], the system named is A375M metastatic melanoma cells. Nature of the data set: MTT cell viability, A375M. Type of data set: cell-based, human. Conditions: 24h exposure, 50 to 200 μM. As for the experimental part:
as §3

Data set [2] concerns MDA-MB mammary adenocarcinoma cells. Nature of the data set: MTT cell viability, MDA-MB. Type of data set: cell-based, human. Conditions: 24h exposure, 50 to 200 μM. On the procedure:
as §3

The test system of data set [3] is all cancer cells (U87, MCF7, MDA-MB, HeLa, Caco2, HepG2, A375M, A375). Nature of the data set: MTT cell viability, eight cancer cell lines. Format: cell-based, human. The conditions noted are these: up to 200 μM, 24h, data not shown. As for the experimental part:
as §3

The next data set deals with T3, Porcine liver APEH (Sus scrofa, UniProt P19205).
T3 construct: purchased Takara; host or cells: porcine liver
T3 sequence (P19205 1-732): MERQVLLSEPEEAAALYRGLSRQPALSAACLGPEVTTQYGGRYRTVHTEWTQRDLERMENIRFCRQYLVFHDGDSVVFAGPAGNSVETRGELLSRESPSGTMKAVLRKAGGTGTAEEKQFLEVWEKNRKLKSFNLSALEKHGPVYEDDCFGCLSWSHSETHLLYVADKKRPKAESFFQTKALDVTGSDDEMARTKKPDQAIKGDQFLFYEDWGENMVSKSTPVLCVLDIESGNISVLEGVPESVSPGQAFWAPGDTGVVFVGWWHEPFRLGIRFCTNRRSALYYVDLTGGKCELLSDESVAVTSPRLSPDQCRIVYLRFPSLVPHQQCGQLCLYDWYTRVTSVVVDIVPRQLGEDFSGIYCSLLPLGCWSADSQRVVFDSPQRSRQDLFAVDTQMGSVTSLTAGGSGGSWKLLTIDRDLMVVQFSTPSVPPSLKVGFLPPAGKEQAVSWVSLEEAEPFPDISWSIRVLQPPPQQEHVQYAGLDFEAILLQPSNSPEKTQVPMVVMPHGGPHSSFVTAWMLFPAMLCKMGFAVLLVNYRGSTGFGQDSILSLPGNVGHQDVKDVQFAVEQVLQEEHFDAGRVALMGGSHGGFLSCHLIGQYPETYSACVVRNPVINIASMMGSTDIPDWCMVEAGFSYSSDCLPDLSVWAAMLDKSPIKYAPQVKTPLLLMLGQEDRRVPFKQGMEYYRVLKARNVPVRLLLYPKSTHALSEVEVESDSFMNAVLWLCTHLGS
Nature of the data set: Cell-free APEH inhibition assay (acetyl-Ala-pNA). Type of data set: biochemical. On the procedure: (§4) APEH activity was measured spectrophotometrically using the chromogenic substrate acetyl-Ala-pNA (Bachem) as described before. The reaction mixture containing pure APEH or an appropriate amount of cell extract was incubated at 37 °C in 50 mM Tris-HCl, pH 7.5 (Tris Buffer).
as §2

Data set [4] relates to HeLa cervical carcinoma cells. Nature of the data set: MTT cell viability, HeLa. Type of data set: cell-based, human. Conditions: 24h exposure, 50 to 200 μM. On the procedure:
as §3

The next data set deals with human fibroblasts. Format: cell-based. As for the experimental part:
Human hepatoma cells (HepG2) were seeded (2x10^4cells/cm^2) and maintained for 24h in MEM (Gibco Invitrogen; Milano) medium supplemented with 2 mM L-glutamine, 1% nonessential amino acids and 10% FBS. Colon carcinoma (Caco-2), cervical carcinoma (Hela), glioblastoma (U87), melanoma (A375, A375M) and mammary adenocarcinoma (MCF7, MDA-MB) were seeded (1x10^4cells/cm^2) and grown in DMEM supplemented with 10% FBS, 2 mM L-glutamine. HepG2, Hela, U87, Caco-2, MCF7, MDA-MB, A375 and A375 metastatic melanoma (A375M) cell lines were obtained by ATCC (LCG standards, Milano, Italy). Normal human dermal fibroblast (NDHF) within 8th passage were seeded at a density of 2x10^4 cells/cm^2 and cultured in fibroblast growth medium (FGM-2; Lonza, Milan, Italy) containing 2% FBS, 50 μg/mL gentamycin and amphotericin B, 10μg/mL fibroblast growth factor and insulin. BHK21 cells (kindly donated by Dr. David Y Thomas, McGill University Montreal Canada) were cultured in DMEM/F12, 5% FBS, 1 mM L-glutamine, 200 µg/mL methotrexate, and 100units/mL penicillin-streptomycin. […]
The colorimetric 3-(4,5-dimethylthiazol-2)-2,5-diphenyltetrazolium bromide (MTT) (Sigma Aldrich, Milan) assay was used to quantify cell viability. […] Absorbance at 590 nm was recorded with a plate reader (Bio Rad mod 680). The relative number of viable cells was expressed as a percentage of the control.

A further data set relates to caspase 3 in A375 cells. Nature of the data set: Caspase 3 activity in A375 cells. Format: cell-based, human. Conditions: A375, 24h, doses 50, 100 or 200 μM, dose-dependent, maximum.
The subject of data set [5] is proteasomal CT-like activity in A375 cells. Nature of the data set: Proteasomal CT-like activity in A375 cytoplasmic extracts after treatment. Type of data set: cell-based, human. The conditions noted are these: for proteasomal CT-like activity inhibited to: 24h. On the procedure:
as §1
(§5) Following the treatments, cells were washed three times with ice cold phosphate-buffer saline (PBS) and cytosolic extracts were prepared accordingly to a published procedure. Protein concentrations were determined in supernatants by BCA protein assay reagent kit (Pierce). Western blotting analyses were performed as previously described.

Data set [6] relates to APEH activity in A375 cells. Nature of the data set: APEH activity in A375 cytoplasmic extracts after treatment. Type of data set: cell-based, human. As for the experimental part: as §4, §5
Another data set deals with Bcl-2 in A375 cells. Nature of the data set: Bcl-2 protein expression by immunoblotting in A375. Format: cell-based, human. The conditions noted are these: A375, 24h, 50-200 μM. As for the experimental part:
as §5
For orientation: A western blot detects proteins with antibodies after separation by electrophoresis.

In a further data set the test system is γGCL mRNA in A375 cells. Nature of the data set: γGCL mRNA by qRT-PCR in A375. Format: cell-based, human. The conditions noted are these: A375, 200 μM, end of time course. (In general: Quantitative PCR measures a nucleic acid by following its amplification.)
For the next data set, the system named is APEH mRNA in A375 cells. Nature of the data set: APEH mRNA by qRT-PCR in A375. Type of data set: cell-based, human. On the procedure: (§6) mRNA expression levels of APEH and β-5 proteasome subunit were determined in treated or untreated cells to investigate on the functional relationship existing between APEH and proteasome activities and on their involvement in the anticancer activity of CLA.
(§7) Total RNA was isolated from the human cell lines (~10^6 cells aliquots) according to the SV Total RNA Isolation System (Promega) protocol, with an on column DNase I step. Total RNA concentrations were determined using a Qubit® Fluorometer (Invitrogen). RNAs were then reverse transcribed using the Transcriptor First Strand cDNA Synthesis Kit (Roche). 100 ng of reverse transcribed complementary DNA, and its dilution series to calculate the efficacy of primers, were amplified by quantitative real-time PCR (qRT-PCR) on an iCycleriQ™ (Bio-Rad) using 300 nM gene-specific primers, Maxima® SYBR Green/Fluorescein qPCR Master Mix (2X) (Fermentas) and the following PCR conditions: 1 cycle at 95 °C for 10min, and 40 cycles of 95 °C for 15s , 60 °C for 30s, and 72 °C for 30s.
(§8) The expression level of β-actin gene was used as an internal control for normalization (ref gene). Raw cycle threshold values (Ct values) obtained for the target genes were compared to the Ct value obtained for the ref gene. […]

For data set [7], the system named is β-5 proteasome subunit mRNA in A375 cells. Nature of the data set: β-5 proteasome subunit mRNA by qRT-PCR in A375. Format: cell-based, human. On the procedure:
as §6, §7, §8

For data set [8], the system named is intracellular GSH in A375 cells. Nature of the data set: Intracellular GSH in A375. Type of data set: cell-based, human. The conditions noted are these: A375, 24h, 50, 100 or 200 μM. On the procedure:
Intracellular concentration of reduced and oxidized glutathione (GSH and GSSG, respectively) were quantified using the 5,5'-dithiobis(2-nitrobenzoic acid)-GSSG reductase recycling assay. GSSG content was preliminarily evaluated in cytosolic extracts of treated or untreated cells upon the addition of 10 mM 1-methyl-2-vinylpyridinium trifluoromethanesulfonate (a specific GSH scavenger).

Where [9] appears, read: negative control, data not shown.

Molecules are shown by their SMILES.

The term IC50 denotes the midpoint of a concentration-inhibition curve.

Description for 20Si human proteasome: The fluorescent substrate N-succinyl-Leu-Leu-Val-Tyr-7-amido-4-methylcoumarin (N-Suc-LLVT-AMC) was used for measurement of the CT-like activity of the proteasome, both in cell free assays and in cancer cell extracts, at a final concentration of 0.080 mM at 37 °C in Tris buffer pH 7.5, following the procedure described in Palmieri et al. [25].
Description for caspase 3 in A375 cells: Pro-apoptotic and cytotoxic ability of CLA isomers were assayed by measuring caspase 3 and the activity of lactate dehydrogenase (LDH) in the spent media, respectively [25]. The caspase 3 activity, measured at 37 °C and pH 7.5, was expressed as fold increase compared to the control culture.

As for `CC(C)C[C@H](NC(=O)[C@H](Cc1ccccc1)NC(=O)c1cnccn1)B(O)O` [BTZ, bortezomib, reference compound], at 20S human proteasome (plateau of dose-response curve), the “inhibition reached, 20S” value is given as “about 60%”. Also, the 50% inhibitory concentration (IC50) with A375 melanoma cells (Homo sapiens, A-375, read-out: IC50 (dose accountable for 50% decrease of cell viability), A375, 24h) stood at 0.01 ± 2e-05 µM.
In the case of `CCCCCC/C=C/C=C\CCCCCCCC(=O)O` [c9,t11-CLA, cis9,trans11 (c9,t11-CLA)], the IC50 on 20S human proteasome came to 31.2 ± 8.8 µM; on 20Si human proteasome it was 6.4 ± 1 µM. Besides, the “reduction of cell viability” value (with A375 melanoma cells; in data set [1]; in data set [2]) was below 40% in each case.
With `CCCCCCCC(=O)O` [octanoic acid, reference compound], the “inhibitory effect on 20S CT-like activity” value on 20S human proteasome (setting [9]) was “only negligible effects”. The “inhibitory effect on 20Si CT-like activity” value on 20Si human proteasome (setting [9]) was “only negligible effects”. Further, in data set [3], the “effect on cell viability” value was “no significant results”.
In the case of `CCCCCC/C=C/C=C/CCCCCCCC(=O)O` [t9,t11-CLA], the “reduction of cell viability” value with A375 melanoma cells was “about 50%”.
For the compound `CCCCC/C=C\C=C\CCCCCCCCC(=O)O` [t10,c12-CLA, trans10,cis12 (t10,c12-CLA)], the IC50 is 14.8 ± 2 µM at 20S human proteasome; 1.1 ± 0.2 µM at 20Si human proteasome; 110 ± 11.7 µM at Porcine liver APEH (37 °C, pH 7.5). In addition, on Porcine liver APEH (dose-dependent), the “maximum inhibition of APEH” value is “about 41%”. For the same compound, the “reduction of cell viability” value is on record as 63% with A375 melanoma cells, 51% in [1] and 40% in data set [4]. The “toxic effects on fibroblast proliferation” value in the data set with human fibroblasts is on record as “lack of toxic effects”. Further, the “caspase 3 activation compared to the control culture” value in the data set on caspase 3 in A375 cells is on record as “eightfold increase”. For the same compound, the “proteasomal CT-like activity plateau, % of starting value” in data set [5] (A375, 50 μM, plateau after 8h) amounted to 70%. The “proteasomal CT-like activity inhibited to” value in [5] (A375, 100 μM) is 50%; in data set [5] (A375, 200 μM) it was 25%. For the same compound, in data set [6] (A375, 50 μM, plateau after 8h), the “APEH activity plateau, % of starting value” stood at 80%. Further, the “APEH activity plateau, % of starting level” value in data set [6] (A375, 200 μM, time course) worked out at 70%. Besides, the “maximum reduction of Bcl-2 expression” value in the data set on Bcl-2 in A375 cells is 80%. In the data set on γGCL mRNA in A375 cells, the “down-regulation of γGCL mRNA levels” value was 1.5 fold. Besides, in the data set with APEH mRNA in A375 cells (A375, 50 μM, time course), the “APEH mRNA stable final value vs initial expression level” value is recorded as “approximately one-fold lower”. Moreover, the “APEH mRNA level” value with APEH mRNA in A375 cells (A375, 200 μM, 24h) is reported as “strongly down-regulated”. Besides, in [7] (A375, 50 μM, time course), the “β-5 mRNA stable final value vs initial expression level” value is recorded as “approximately one-fold lower”. Besides, in data set [7] (A375, 200 μM, 24h), the “proteasome (β-5) mRNA level” value was “strongly down-regulated”. Besides, the “intracellular GSH” value in [8] is on record as “significant decline”.

Values taken from PMC3834215, “RedOx Status, Proteasome and APEH: Insights into Anticancer Mechanisms of t10,c12-Conjugated Linoleic Acid Isomer on A375 Melanoma Cells” (PLoS ONE, 2013).
